Assay results taken from ChEMBL document CHEMBL4184141, “Investigating the Antibacterial Activity of Biphenylthiazoles against Methicillin- and Vancomycin-Resistant Staphylococcus aureus (MRSA and VRSA)” (J Med Chem, 2017).
Converted amounts (≈) assume the structure as drawn. The source made the active and inactive calls. No cut-off for these calls is given here.

Experiments:
[1] = tested on: Staphylococcus aureus; test: Antibacterial activity against methicillin-resistant Staphylococcus aureus 2658 RCMB up to 20 hrs by broth microdilution assay; type: functional
[2] = Aqueous solubility of the compound in PBS after 2 hrs by turbidimetric method; type: physicochemical
[3] = Apparent permeability of the compound across basolateral side to apical side in human Caco2 cells by LC-MS/MS analysis; type: ADME, cell-based; settings: Caco-2
[4] = tested on: Staphylococcus aureus; test: Bactericidal activity against methicillin-resistant Staphylococcus aureus USA300 assessed as time required for 3 log10CFU reduction in bacterial load at 4 times MIC by time kill assay; type: functional
[5] = Efflux ratio of permeability from basolateral to apical side over apical to basolateral side of human Caco2 cells by LC-MS/MS analysis; type: ADME, cell-based; settings: Caco-2
[6] = Half life in human liver microsomes in absence of NADPH by LC-MS/MS analysis; type: ADME, microsome
[7] = tested on: Staphylococcus aureus; test: Antibacterial activity against methicillin-resistant Staphylococcus aureus USA400 NRS123 up to 20 hrs by broth microdilution assay; type: functional; settings: USA400 NRS123, 20 h
[8] = tested on: Enterococcus faecium; test: Antibacterial activity against vancomycin-resistant Enterococcus faecium ATCC 700221 up to 20 hrs by broth microdilution assay; type: functional; settings: ATCC 700221, 20 h
[9] = tested on: Staphylococcus aureus; test: Antibacterial activity against vancomycin-resistant Staphylococcus aureus VRS11a up to 20 hrs by broth microdilution assay; type: functional
[10] = tested on: Staphylococcus aureus; test: Potency index, ratio of vancomycin MIC to compound MIC for antibacterial activity against vancomycin-resistant Staphylococcus aureus VRS10; type: functional
[11] = tested on: Staphylococcus aureus; test: Antibacterial activity against vancomycin-resistant Staphylococcus aureus VRS10 up to 20 hrs by broth microdilution assay; type: functional; settings: VRS10, 20 h
[12] = tested on: Staphylococcus aureus; test: Potentiation of vancomycin-induced antibacterial activity against vancomycin-resistant Staphylococcus aureus VRS10 assessed as fold reduction in vancomycin MIC at 0.5 times MIC after 20 to 22 hrs; type: functional
[13] = tested on: Pseudomonas aeruginosa; test: Antibacterial activity against Pseudomonas aeruginosa ATCC 15442 up to 20 hrs by broth microdilution assay; type: functional; settings: ATCC 15442, 20 h
[14] = tested on: Staphylococcus aureus; test: Bactericidal activity against vancomycin-resistant Staphylococcus aureus VRS11a up to 18 hrs by broth microdilution assay; type: functional; settings: read-out: MBC99.9
[15] = tested on: Staphylococcus aureus; test: Antibacterial activity against methicillin-resistant Staphylococcus aureus USA300 infected in Caenorhabditis elegans AU37 harboring (sek-1(km4);glp-4(bn2)I) mutant assessed as reduction in bacterial burden at 20 ug/ml after 18 hrs by microscopic analysis relative to control; type: functional; set-up: scale not given: the % may be the effect or the level left
[16] = Intrinsic clearance in human liver microsomes in absence of NADPH by LC-MS/MS analysis; type: ADME, microsome; settings: read-out: CLH
[17] = tested on: Staphylococcus aureus; test: Bactericidal activity against vancomycin-resistant Staphylococcus aureus VRS12 up to 18 hrs by broth microdilution assay; type: functional; settings: VRS12, 18 h, read-out: MBC99.9
[18] = tested on: Staphylococcus aureus; test: Potentiation of vancomycin-induced antibacterial activity against vancomycin-resistant Staphylococcus aureus VRS10 assessed as reduction in vancomycin MIC after 20 hrs by checkerboard assay; type: functional
[19] = Intrinsic clearance in human liver microsomes in presence of NADPH by LC-MS/MS analysis; type: ADME, microsome; settings: read-out: CLH
[20] = tested on: Staphylococcus aureus; test: Synergistic antibacterial activity against vancomycin-resistant Staphylococcus aureus VRS10 after 20 hrs in presence of vancomycin by checkerboard assay; type: functional; settings: VRS10, 20 h
[21] = tested on: Staphylococcus aureus; test: Bactericidal activity against vancomycin-resistant Staphylococcus aureus VRS10 up to 18 hrs by broth microdilution assay; type: functional; settings: VRS10, 18 h, read-out: MBC99.9
[22] = tested on: Staphylococcus aureus; test: Bactericidal activity against Staphylococcus aureus RN4220 up to 18 hrs by broth microdilution assay; type: functional; settings: RN4220, 18 h, read-out: MBC99.9
[23] = tested on: Staphylococcus aureus; test: Potency index, ratio of vancomycin MIC to compound MIC for antibacterial activity against vancomycin-resistant Staphylococcus aureus VRS12; type: functional
[24] = tested on: HRT-18 cell line; test: Cytotoxicity against human HRT18 cells up to 32 microg/ml after 6 hrs by MTS assay; type: cell-based; settings: hrt-18, 6 h
[25] = Half life in human liver microsomes in presence of NADPH by LC-MS/MS analysis; type: ADME, microsome
[26] = tested on: Staphylococcus aureus; test: Potentiation of vancomycin-induced antibacterial activity against vancomycin-resistant Staphylococcus aureus VRS10 assessed as vancomycin MIC after 20 hrs by checkerboard assay; type: functional; settings: VRS10, 20 h
[27] = tested on: Staphylococcus aureus; test: Bactericidal activity against methicillin-resistant Staphylococcus aureus NRS119 up to 18 hrs by broth microdilution assay; type: functional; settings: NRS119, 18 h, read-out: MBC99.9
[28] = tested on: Staphylococcus aureus; test: Bactericidal activity against methicillin-resistant Staphylococcus aureus USA400 NRS123 up to 18 hrs by broth microdilution assay; type: functional; settings: USA400 NRS123, 18 h, read-out: MBC99.9
[29] = tested on: Staphylococcus aureus; test: Potency index, ratio of vancomycin MIC to compound MIC for antibacterial activity against vancomycin-resistant Staphylococcus aureus VRS11a; type: functional
[30] = tested on: Staphylococcus aureus; test: Antibacterial activity against methicillin-resistant Staphylococcus aureus NRS119 up to 20 hrs by broth microdilution assay; type: functional; settings: NRS119, 20 h
[31] = tested on: Staphylococcus aureus; test: Antibacterial activity against Staphylococcus aureus RN4220 up to 20 hrs by broth microdilution assay; type: functional; settings: RN4220, 20 h
[32] = tested on: Staphylococcus aureus; test: Antibacterial activity against vancomycin-resistant Staphylococcus aureus VRS12 up to 20 hrs by broth microdilution assay; type: functional; settings: VRS12, 20 h
[33] = tested on: HRT-18 cell line; test: Cytotoxicity against human HRT18 cells at 64 microg/ml after 6 hrs by MTS assay; type: cell-based; settings: hrt-18, 6 h
[34] = tested on: Staphylococcus aureus; test: Bactericidal activity against methicillin-resistant Staphylococcus aureus USA300 assessed as time required to reduce bacterial load to 0 at 4 times MIC by time-kill assay; type: functional

C/C(=N\NC(=N)N)c1sc(-c2ccc(-c3ccccc3)cc2)nc1C
MIC [1]: 1.6 to 2.4 µg/mL (≈ 4.58 to 6.87 µM)
solubility kinetic at 2 h [2]: 2.7 µM (≈ 0.944 µg/mL)
Papp B→A [3]: 1.2 ×10⁻⁶ cm/s
Time [4]: 10 h
efflux ratio [5]: > 2

Cc1nc(-c2ccc(-c3ccccc3)cc2)sc1-c1ccnc(NC(=N)N2CCN(C)CC2)n1
half-life [6]: > 4 h
MIC [7]: 1 µg/mL (≈ 2.13 µM)
MIC [8]: 16 µg/mL (≈ 34.1 µM)
MIC [9]: 4 µg/mL (≈ 8.52 µM)
Ratio [10]: 100
MIC [11]: 4 to 8 µg/mL (≈ 8.52 to 17 µM)
Activity [12]: inactive
MIC [13]: > 64 µg/mL
MBC [14]: 8 µg/mL (≈ 17 µM)
MIC [1]: 0.39 µg/mL (≈ 0.83 µM)
Activity [15]: 65%
solubility kinetic at 2 h [2]: 2.3 µM (≈ 1.08 µg/mL)
microsomal CLint [16]: < 9.6 µL/min/mg
Papp B→A [3]: 1.7 ×10⁻⁶ cm/s
MBC [17]: 8 µg/mL (≈ 17 µM)
fractional inhibitory concentration index (FICI) [18]: 1.02
microsomal CLint [19]: 15.3 µL/min/mg
MIC [20]: 0.13 µg/mL
MBC [21]: 8 µg/mL (≈ 17 µM)
MBC [22]: 8 µg/mL (≈ 17 µM)
Ratio [23]: 8
Activity [24]: Non-Toxic
efflux ratio [5]: > 2
half-life [25]: 2.52 h
MIC [26]: 128 to 256 µg/mL
MBC [27]: 4 µg/mL (≈ 8.52 µM)
MBC [28]: 2 µg/mL (≈ 4.26 µM)
Ratio [29]: 100
MIC [30]: 2 µg/mL (≈ 4.26 µM)
MIC [31]: 2 µg/mL (≈ 4.26 µM)
MIC [32]: 2 µg/mL (≈ 4.26 µM)
Activity [33]: Toxic
Time [34]: 2 h

CNC(=N)Nc1nccc(-c2sc(-c3ccc(-c4ccccc4)cc3)nc2C)n1
MIC [7]: 16 µg/mL (≈ 39.9 µM)
MIC [9]: 32 µg/mL (≈ 79.9 µM)
MIC [11]: 32 µg/mL (≈ 79.9 µM)
MBC [14]: 64 µg/mL (≈ 160 µM)
MIC [1]: 1.56 µg/mL (≈ 3.9 µM)
MBC [17]: 64 µg/mL (≈ 160 µM)
MBC [21]: 64 µg/mL (≈ 160 µM)
MBC [22]: 32 µg/mL (≈ 79.9 µM)
MBC [27]: 16 µg/mL (≈ 39.9 µM)
MBC [28]: 16 µg/mL (≈ 39.9 µM)
MIC [30]: 8 µg/mL (≈ 20 µM)
MIC [31]: 8 µg/mL (≈ 20 µM)
MIC [32]: 64 µg/mL (≈ 160 µM)

CN[C@H](CC(C)C)C(=O)N[C@H]1C(=O)N[C@@H](CC(N)=O)C(=O)N[C@H]2C(=O)N[C@H]3C(=O)N[C@H](C(=O)N[C@H](C(=O)O)c4cc(O)cc(O)c4-c4cc3ccc4O)[C@H](O)c3ccc(c(Cl)c3)Oc3cc2cc(c3O[C@@H]2O[C@H](CO)[C@@H](O)[C@H](O)[C@H]2O[C@H]2C[C@](C)(N)[C@H](O)[C@H](C)O2)Oc2ccc(cc2Cl)[C@H]1O [VANCOMYCIN]
MIC [8]: > 64 µg/mL
MIC [9]: > 512 µg/mL
MIC [11]: 128 to 512 µg/mL (≈ 88.3 to 353 µM)
MBC [14]: > 512 µg/mL
MIC [1]: 1.56 µg/mL (≈ 1.08 µM)
MBC [17]: 256 µg/mL (≈ 177 µM)
MBC [21]: 512 µg/mL (≈ 353 µM)
MBC [22]: 1 µg/mL (≈ 0.69 µM)
MBC [27]: 1 µg/mL (≈ 0.69 µM)
MBC [28]: 1 µg/mL (≈ 0.69 µM)
MIC [32]: 16 µg/mL (≈ 11 µM)
Time [34]: 24 h
